# Results from paper PMC7576996, “Antiparasitic Behavior of Trifluoromethylated Pyrazole 2-Amino-1,3,4-thiadiazole Hybrids and Their Analogues: Synthesis and Structure-Activity Relationship” (Frontiers in Pharmacology, 2020).
# Tests used:
# [1] = Cytotoxicity assay in J774A1 macrophages (MTT, 48 h); format: cell-based; details: mouse, pH 7.2, J774A1, 50% inhibition of growth
# Description: (§1) All the novel trifluoromethylated pyrazoles derivatives 2a–f, 3a–f, and 4a–f were evaluated against the promastigote form of L. amazonensis and the epimastigote form of T. cruzi. The results are reported as the concentration causing a 50% inhibition in cell growth (IC50). Additionally, the toxicity of compounds was evaluated against two different cell lines: epithelial cell LLCMK2 and macrophages J774A1. The antiproliferative and cytotoxic activities are shown in Table 2 , as well as the calculated selectivity index (SI).
# (§2) 2.4. Antiproliferative activity […]
# (§3) Cytotoxicity activity was determined in LLCMK2 (epithelial cells of kidney of Macaca
# (§4) mulatta) cells and J774A1 macrophages. LLCMK2 (epithelial cells of kidney of Macaca mulatta) cells
# (§5) were cultured in Dulbecco’s modified Eagle’s medium (DMEM, pH 7.2) supplemented with 10% FBS
# (§6) at 37 °C in a 5% CO2 atmosphere. J774A1 macrophages were cultured in RPMI-1640 (pH 7.2) medium
# (§7) supplemented with 10% FBS at 37 °C in a 5% CO2 atmosphere.
# (§8) 2.4.2. Dilution of compounds
# (§9) Stock solutions of the compounds were prepared in DMSO and then diluted in the respective
# (§10) medium. The groups (controls and treated) were tested with DMSO concentrations below 1%, with
# (§11) 2.4.3. Antiproliferative assay […]
# (§12) 2.4.4. Cytotoxicity assay
# (§13) LLCMK2 cells (2.5 × 10^5 cells/mL) suspension was prepared in DMEM medium supplemented
# (§14) with 10% FBS and added to 96-well plates. Then, the plates were incubated at 37 °C in a
# (§15) CO2 atmosphere for 24h to obtain confluent cell growth. After incubation, cells were treated or not
# (§16) with different concentrations of compounds diluted in DMEM for 72 h. Macrophage (5 × 10^5 cells/mL)
# (§17) suspension was prepared in RPMI-1640 medium supplemented with 10% FBS and added to 96-well
# (§18) plates. Then, the plates were incubated at 37 °C in a CO2 atmosphere for 24h to obtain confluent cell
# (§19) growth. After incubation, cells were treated or not with different concentrations of compounds diluted
# (§20) in RPMI-1640 for 48h. After treatment, medium was removed and cells were incubated with MTT (2
# (§21) mg/mL) for 4h. Then, DMSO was added for solubilization of the formazan and analyzed with a reading
# (§22) microplate reader (BIO-TEK PowerWave XS spectrophotometer) at 392 nm. The percentage of viable
# (§23) cells was calculated in relation to the control to determine the cytotoxic concentration to 50% of the […]
# [2] = test system: epimastigote form of Trypanosoma cruzi; assay: Antiproliferative assay, epimastigote form of Trypanosoma cruzi (XTT, 96 h); format: cell-based; details: for SI T-M, selectivity index (Macrophages CC50/T. cruzi IC50): J774A1 vs epimastigotes; for SI T-E, selectivity index (Epithelial CC50/T. cruzi IC50): LLCMK2 vs epimastigotes; for IC50: Trypanosoma cruzi, epimastigote form, 96 h, mean ± standard deviation, read-out: T. cruzi IC50
# Description: as §1
# (§24) 2.4. Antiproliferative activity
# (§25) Promastigotes forms of Leishmania amazonensis (strain WHOM/ BR/75/JOSEFA) were
# (§26) cultured in Warren medium (brain heart infusion, hemin, and folic acid; pH 7.4) supplemented with
# (§27) 10% fetal bovine serum (FBS) at 25 °C. Epimastigote forms of Trypanosoma cruzi (Y strain) were
# (§28) cultured in LIT medium (liver infusion tryptose; hemim, and folic acid; pH 7.4) supplemented with
# as §3, §4, §5, §6, §7, §8, §9, §10
# (§29) 2.4.3. Antiproliferative assay
# (§30) Promastigote forms (1 × 10^6 parasites/mL) were cultured in 96-well plates in the presence and
# (§31) absence of different concentrations of compounds diluted in Warren medium supplemented with 10%
# (§32) FBS and incubated for 72h. Epimastigote forms (1 × 10^6 parasites/mL) were cultured in 96 -well plates
# (§33) in the presence and absence of different concentrations of compounds diluted in LIT medium
# (§34) supplemented with 10% FBS and incubated for 96h. After treatment, the parasites were incu bated with
# (§35) a solution of 2,3 -bis (2 -methoxy -4-nitro -5-sulfophenyl) -2H-tetrazolium -5-carboxanilide (XTT; 0.5
# (§36) mg/mL) and phenazine methanesulfonate activator (PMS; 0.06 mg/mL) in PBS for 4h. Then, the
# (§37) absorbance was read in a microplate reader (Bio Tek - Power Wave XS) at 450 nm. The percentage of
# (§38) viable parasites was calculated in relation to the control in order to determine the concentration that
# (§39) inhibits 50% of the protozoa (IC 50).
# as §12, §13, §14, §15, §16, §17, §18, §19, §20, §21
# [3] = Cytotoxicity assay in LLCMK2 epithelial cells (MTT, 72 h); format: cell-based; details: Macaca mulatta, LLCMK2 kidney epithelial cells, pH 7.2, LLCMK2, 50% inhibition of growth
# Description: as §1, §2, §3, §4, §5, §6, §7, §8, §9, §10, §11, §12, §13, §14, §15, §16, §17, §18, §19, §20, §21, §22, §23
# [4] = test system: promastigote form of Leishmania amazonensis; assay: Antiproliferative assay, promastigote form of Leishmania amazonensis (XTT, 72 h); format: cell-based; details: for SI L-M, selectivity index (Macrophages CC50/L. amazonensis IC50): J774A1 vs promastigotes; for SI L-E, selectivity index (Epithelial CC50/L. amazonensis IC50): LLCMK2 vs promastigotes; for IC50: Leishmania amazonensis, promastigote form, 72 h, mean ± standard deviation, read-out: L. amazonensis IC50
# Description: as §1, §24, §25, §26, §27, §28, §3, §4, §5, §6, §7, §8, §9, §10, §29, §30, §31, §32, §33, §34, §35, §36, §37, §38, §39, §12, §13, §14, §15, §16, §17, §18, §19, §20, §21
SMILES,CC50 at 48 h [1] [µM],"SI T-M, selectivity index (Macrophages CC50/T. cruzi IC50) [2]","SI T-E, selectivity index (Epithelial CC50/T. cruzi IC50) [2]",IC50 [2] [µM],CC50 at 72 h [3] [µM],"SI L-M, selectivity index (Macrophages CC50/L. amazonensis IC50) [4]","SI L-E, selectivity index (Epithelial CC50/L. amazonensis IC50) [4]",IC50 [4] [µM],melting point [°C]
"Nc1nnc(-c2c(C(F)(F)F)nn(-c3ccccc3)c2-c2ccc(F)cc2)s1 [4b, 4-[(2-amino)-1,3,4-thiadiazo-5-yl]-3-trifluoromethyl-5-(4-fluorophenyl)-1-phenyl-1H-pyrazole]",249 ± 6.2,5.99,3.52,41.6 ± 5.3,146 ± 5.4,6.17,3.63,40.4 ± 3.2,243.3
CSC(N)=NN=Cc1c(C(F)(F)F)nn(-c2ccccc2)c1-c1ccc(F)cc1 [3b],202 ± 3.4,5.07,2.99,39.9 ± 3.2,119 ± 3,5.90,3.48,34.3 ± 4.7,145.5
"Nc1nnc(-c2c(C(F)(F)F)nn(-c3ccccc3)c2-c2ccc([N+](=O)[O-])cc2)s1 [4a, 4-[(2-amino)-1,3,4-thiadiazo-5-yl]-3-trifluoromethyl-5-(4-nitrophenyl)-1-phenyl-1H-pyrazole]",285 ± 5.6,9.84,7.29,29 ± 2.7,211 ± 3.1,14.56,10.78,19.6 ± 1.5,236.7
CSC(N)=NN=Cc1c(C(F)(F)F)nn(-c2ccccc2)c1-c1ccc([N+](=O)[O-])cc1 [3a],221 ± 3.1,9.19,7.32,24.1 ± 0.8,176 ± 5.9,12.10,9.64,18.3 ± 2.4,190.7
"NC(=S)NN=Cc1c(C(F)(F)F)nn(-c2ccccc2)c1-c1ccc(Br)cc1 [2d, 5-(4-bromophenyl)-4-[(2-carbamothioyl-hydrazinylidene)methyl]-3-trifluoromethyl-1-phenyl-1H-pyrazole]",170 ± 7.2,5.60,4.89,30.3 ± 5.2,148 ± 6.9,8.98,7.85,18.9 ± 1.1,
"NC(=S)NN=Cc1c(C(F)(F)F)nn(-c2ccccc2)c1-c1ccccc1 [2e, 4-[(2-carbamothioyl-hydrazinylidene)methyl]-3-trifluoromethyl-1,5-diphenyl-1H-pyrazole]",400 ± 6.6,4.81,4.75,83.1 ± 5.3,394 ± 7.1,6.47,6.39,61.7 ± 2.9,211.27
"Nc1nnc(-c2c(C(F)(F)F)nn(-c3ccccc3)c2-c2ccc(Br)cc2)s1 [4d, 4-[(2-amino)-1,3,4-thiadiazo-5-yl]-5-(4-Bromophenyl)-3-trifluoromethyl-1-phenyl-1H-pyrazole]",147 ± 3.2,5.51,4.50,26.7 ± 1.4,120 ± 2.5,10.01,8.17,14.7 ± 0.9,239.2
"Nc1nnc(-c2c(C(F)(F)F)nn(-c3ccccc3)c2-c2ccc(Cl)cc2)s1 [4c, 4-[(2-amino)-1,3,4-thiadiazo-5-yl]-5-(4-chlorophenyl)-3-trifluoromethyl-1-phenyl-1H-pyrazole]",385 ± 5.8,9.51,8.63,40.5 ± 3.1,350 ± 6.1,10.67,9.68,36.1 ± 2.8,224.9
"COc1ccc(-c2c(-c3nnc(N)s3)c(C(F)(F)F)nn2-c2ccccc2)cc1 [4f, 4-[(2-amino)-1,3,4-thiadiazo-5-yl]-3-trifluoromethyl-5-(4-methoxyphenyl)-1-phenyl-1H-pyrazole]",156 ± 4.1,6.86,5.87,22.8 ± 1.2,134 ± 5.1,9.14,7.83,17.1 ± 1.6,239.1
"NC(=S)NN=Cc1c(C(F)(F)F)nn(-c2ccccc2)c1-c1ccc([N+](=O)[O-])cc1 [2a, 4-[(2-carbamothioyl-hydrazinylidene)methyl]-3-trifluoromethyl-5-(4-nitrophenyl)-1-phenyl-1H-pyrazole]",243 ± 3.6,5.32,6.62,45.7 ± 5,303 ± 5.8,9.10,11.33,26.7 ± 1.4,226.5
"Nc1nnc(-c2c(C(F)(F)F)nn(-c3ccccc3)c2-c2ccccc2)s1 [4e, 4-[(2-amino)-1,3,4-thiadiazo-5-yl]-3-trifluoromethyl-1,5-diphenyl-1H-pyrazole]",340 ± 5.2,5.18,4.03,65.6 ± 2.9,264 ± 3.2,6.49,5.04,52.4 ± 3.5,
COc1ccc(-c2c(C=NN=C(N)SC)c(C(F)(F)F)nn2-c2ccccc2)cc1 [3f],123 ± 3.1,6.43,5.30,19.1 ± 0.9,101 ± 2.4,8.65,7.13,14.2 ± 1.1,
CSC(N)=NN=Cc1c(C(F)(F)F)nn(-c2ccccc2)c1-c1ccc(Cl)cc1 [3c],301 ± 3.9,8.09,7.99,37.2 ± 4.8,297 ± 6.1,9.80,9.68,30.7 ± 2.2,188.5
CSC(N)=NN=Cc1c(C(F)(F)F)nn(-c2ccccc2)c1-c1ccc(Br)cc1 [3d],147 ± 3.6,5.71,4.44,25.7 ± 2.5,114 ± 3.8,10.55,8.20,13.9 ± 0.6,
